{
  "source": "patent US20100055691A1",
  "about": "“SCREENING METHOD FOR THERAPEUTIC AGENT FOR AMYOTROPHIC LATERAL SCLEROSIS” (HISAMITSU PHARMACEUTICAL CO.,IN., priority 2006, published 2010)",
  "assay_type_in_all_cases": "cell-based",
  "key": {"[1]": {"test_system": "NFκB protein in HEK293 cells", "test": "western blotting of NFκB protein in cell nucleus and cytoplasm", "settings": "100 ng/mL TNF-α for 1, 2, 4, 8 or 24 h", "description": "Furthermore, the expression level of the NFκB protein in the cell nucleus and the cytoplasm of HEK293 cells treated with 100 ng/mL of TNF-α for 1, 2, 4, 8, or 24 h was examined using western blotting (WB). For this WB, rabbit anti-NFκB p65(C-20) SC-372 (Santa Cruz) was used as the primary antibody and goat anti-rabbit SC-2004 (Santa Cruz) as the secondary antibody."}, "[2]": {"test_system": "Tollip and IRAK-1 complex", "test": "immunoprecipitation of the interaction between Tollip and IRAK-1", "settings": "HEK293 cells transfected with Tollip-Myc-pcDNA3, 100 ng/mL TNF-α for 1 h", "description": "There has been a report that Tollip binds to IRAK-1 in IL-1R/TLR signaling. We examined whether this happened in TNF-α signaling also. The experiment was carried out by the immunoprecipitation method, which can verify binding of proteins. HEK293 cells were transfected with Tollip-Myc-pcDNA3. Then, after 24 h, some of the cells were treated for 1 h with 100 ng/mL of TNF-α while others were not treated. After that, the cells were lysed and immunoprecipitation […] was carried out. For the immunoprecipitation, Chrom PumPure mouse IgG (Jackson Immunoresearch) was used as the control, mouse anti-IRAK-1(F-4)SC-5288 (Santa Cruz) and mouse anti-Myc(9B11)#2276 (Santa Cruz) were used as primary antibodies, and goat anti-mouse SC-2005 (Santa Cruz) was used as the secondary antibody."}, "[3]": {"test_system": "Tollip", "test": "cell fractionation and western blotting of the intracellular localization of Tollip", "settings": "HEK293 cells transfected with Tollip-Myc-pcDNA3, 100 ng/mL TNF-α up to 48 h", "description": "Firstly, the intracellular localization of alsin and Tollip was examined by cell fractionation and with western blotting. To be more specific, HEK293 cells were transfected with ALS2CR6-FLAG-pIRESpuro2 or Tollip-Myc-pcDNA3 and 24 h later, the cells were lysed and fractionated by a standard method. After that, western blotting (WB) was carried out. In the WB, lamin, which is localized in the cell nucleus only, and tubulin, which is localized in the cytoplasm only, were used as controls; mouse anti-lamin B (101-B7) NA12 (CALBIOCHEM) or mouse anti-tubulin (Ab-2) (clone DM1A) (LABVISION/NEOMARKERS) were used as primary antibodies, and goat anti-mouse SC-2005 (Santa Cruz) was used as the secondary antibody.\nNext, with HEK293 cells transfected with Tollip-Myc-pcDNA3, we examined how the intracellular localization of Tollip changed by TNF-α treatment. Treatment with 100 ng/mL of TNF-α was given up to 48 h and changes in localization of Tollip were checked at different time points."}, "[4]": {"test_system": "NFκB activity in HEK293 cells", "test": "luciferase assay of induction of NFκB activity by TNF-α", "description": "Firstly, for establishing the experiment system, we screened various treatment times and doses of TNF-α to determine the optimum conditions for induction of NFκB activity by TNF-α. The luciferase assay was used for the screening. To be more specific, firstly, the NFκB gene was introduced upstream of LUC into pELAM1-Luc, which is a luciferase (LUC) reporter vector, and a vector for expressing NFκB/LUC fusion protein was prepared. Next, HEK293 cells were transfected with this expression vector. 24 h after the transfection, the cells were treated with 10 ng/mL of TNF-α for 1, 2, 4, 8, or 24 h. After that, the luciferase assay was carried out by a standard method, and the level of transcription of the NFκB, which was the target gene, was examined. FIG. 9 (A) confirms that highest NFκB activity was induced 1 h after the treatment with TNF-α.\nThe level of transcription of NFκB was measured using different concentrations of TNF-α: 10, 100, and 1000 ng/mL, keeping the treatment time constant at 1 h. FIG. 9 (B) confirms that the highest NFκB activity was induced with 100 ng/mL."}},
  "data": [
    {"substance": "TNF-α", "values": [
      {"measurement": "time of highest level of NFκB protein in the cell nucleus", "setting": "[1]", "result": 1, "unit": "h"},
      {"measurement": "binding of Tollip and IRAK-1", "setting": "[2]", "result": "suppressed"},
      {"measurement": "expression of Tollip", "setting": "[3]", "result": "decreased the expression of Tollip"},
      {"measurement": "intracellular localization of Tollip", "setting": "[3]", "result": "made Tollip to migrate to the cell nucleus"},
      {"measurement": "treatment time at which highest NFκB activity was induced", "setting": "[4]; HEK293 cells, 10 ng/mL TNF-α for 1, 2, 4, 8 or 24 h", "result": 1, "unit": "h"},
      {"measurement": "concentration at which highest NFκB activity was induced", "setting": "[4]; HEK293 cells, 10, 100 and 1000 ng/mL, treatment time 1 h", "result": 100, "unit": "ng/mL"}
    ]}
  ]
}
